Assay results taken from patent US7932272B2, “Antifungal agent containing heterocyclic compound” (Eisai R&D Management Co., Ltd., priority 2003, dated 2011).
≈ marks a conversion by molar mass, not a printed value. Blank lines part the entries; values can stand above or below the compound they belong to.

How the values were obtained:
[1] = system: C. albicans E81022 strain; assay: Anti-Candida activity (MIC measurement); type: cell-based; conditions: E81022STRAIN, MIC by visual inspection, C. albicans E81022, 48 hours at 30 to 35° C.
Description: (§1) For the C. albicans E81022 strain, a fungal suspension from a standing culture for 48 hours at 30° C. in a Sabouraud dextrose liquid culture medium (SDB) was diluted 10,000-fold with a 1.3-fold concentrated SDB to adjust to a fungal suspension of 1 to 2×10^4 cells/ml. For the A. fumigatus Tsukuba strain, −80° C. stored strain was diluted 1,000-fold with a 1.3-fold concentrated SDB to adjust to a fungal suspension of 2 to 3×10^3 cells/ml.
(§2) Using a U-bottomed 96 well plate, 8 samples/plate (A to H) of sample dilution solutions were prepared. On the 3rd row of each plate was dispensed 240 μl of sterilized and distilled water, and on the 2nd and 4th to 12th rows were dispensed 125 μl of 4% dimethylsulfoxide solution. Weighed sample was dissolved in dimethylsulfoxide to prepare a 2.5 to 20 mg/ml solution, 10 μl of this solution was then added to the 3rd row of the prepared plate, and 10 steps of two-fold step dilutions (125 μl of solution+125 μl of 4% dimethylsulfoxide) were performed on the plate.
(§3) The fungal suspension preprared in (1) was used in the amount of 75 μl/well to inoculate a V-bottomed or flat-bottomed 96 well plate containing 25 μl/well of test compound dilution solution prepared in (2), and a standing culture was carried out aerobically for 48 hours at 30 to 35° C.

[2] = system: C. albicans E81022 strain; assay: Experimental systemic candida infection model in mice; type: in vivo, female ICR mice; conditions: C. albicans i.v. infection, 2.5 mg/kg peroral 3 times every 4 hours, observed until 14 days after infection
Description: A standing culture of C. albicans E81022 strain was carried out for 48 hours at 30° C. in Sabouraud dextrose agar medium (SDA), the recovered fungal cells were suspended in sterilized physiological saline. By counting the fungal number on a cytometry plate, the suspension was diluted to 2×10^7 cells/ml with sterilized physiological saline to serve as fungal inoculum.
The fungal inoculum was used in the amounts of 0.2 ml to inoculate 4.5 to 5.5 week-old female ICR mice in the tail vein (4×10^6 cells/mouse).
From 0.5 to 1 hour after fungal inoculation, 0.2 ml of agent solution (dissolved or suspended in sterilized physiological saline containing 6.5% dimethylsulfoxide and 3.5% Tween 80) was administered into the stomach using a peroral probe, 3 times every 4 hours. The agent concentration was 2.5 mg/kg, and the number of animals in one group was 5 animals.
(§4) The protective effect was determined by observing life/death until 14 days after infection and calculating the mean survival days.

[3] = system: A. fumigatus Tsukuba strain; assay: Experimental respiratory aspergillus infection model in mice; type: in vivo, female DBA/2N mice; conditions: 5-fluorouracil-treated mice, A. fumigatus nasal infection, 20 or 40 mg/kg peroral 3 times per day for 3 days, observed until 14 days after infection
Description: In order to increase susceptibility of the mice to infection, 200 mg/kg of 5-fluorouracil was administered subcutaneously 6 days prior to infection.
A. fumigatus Tsukuba strain was used.
A spore suspension of the infection strain was used to coat a potato dextrose agar medium (PDA), a standing culture was carried out for 4 to 7 days at 35° C., spore was then suspended in a sterilized physiological saline containing 0.05% Tween 80. By counting the pore count on a cytometry plate, the suspension was diluted to 6×10^5 cells/ml with sterilized physiological saline containing 0.05% Tween 80 to serve as fungal inoculum.
Under ketalar anesthesia, 50 μl of fungal inoculum was used to inoculate 8 to 9 week-old female DBA/2N mice in the nose (3×10^4 cells/mouse).
From 1 hour after fungal inoculation, 0.2 ml of agent solution (dissolved or suspended in sterilized physiological saline containing 6.5% DMSO and 3.5% Tween 80), was administered into the stomach using a peroral probe 3 times per day for 3 days. The agent dosage was from 20 or 40 mg/kg, and the number of animals in one group was 5 animals.
as §4

[4] = system: A. fumigatus Tsukuba strain; assay: Anti-Aspergillus activity (MIC measurement); type: cell-based; conditions: MIC by visual inspection, 48 hours at 30 to 35° C.
Description: as §1, §2, §3

SMILES: Nc1ccc(C(=O)NCc2ccc(Oc3cccc(F)c3)s2)cn1 [Example A-137, 6-Amino-N-(5-(3-fluorophenoxy)thiophen-2-ylmethyl)nicotinamide]
MIC [1]: 1.56 µg/mL (≈ 4.54 µM)
Mean Survival Days [2]: 12.8 days

SMILES: Nc1ccc(C(=O)NCc2ccc(OCc3ccccc3F)cc2)c(N)n1 [Example A-11, 2,6-Diamino-N-(4-(2-fluoro-benzyloxy)-benzyl)-nicotinamide]
Mean Survival Days [3]: 10.4 days

SMILES: Nc1ccc(C(=O)NCc2ccc(OCc3ccccc3)s2)c(N)n1 [Example A-56, 2,6-Diamino-N-(5-benzyloxy-thiophen-2-ylmethyl)-nicotinamide]
Mean Survival Days [3]: 10.8 days

SMILES: Nc1ccc(C(=O)NCc2ccc(Cc3ccccc3)s2)c(N)n1 [Example A-55, 2,6-Diamino-N-(5-benzyl-thiophen-2-ylmethyl)-nicotinamide]
Mean Survival Days [3]: 12.6 days

SMILES: Nc1ccc(C(=O)NCc2ccc(Oc3ccccc3)s2)c(N)n1 [Example A-54, 2,6-diamino-N-(5-phenoxy-thiophene-2-ylmethyl)-nicotinamide]
MIC [4]: 1.56 µg/mL (≈ 4.58 µM)
MIC [1]: 0.78 µg/mL (≈ 2.29 µM)
Mean Survival Days [2]: 10.0 days

SMILES: Nc1ccc(C(=O)NCc2ccc(OCc3ccccc3)cc2)c(N)n1 [Example A-10, 2,6-Diamino-N-(4-benzyloxy-benzyl)-nicotinamide]
MIC [4]: 1.56 µg/mL (≈ 4.48 µM)
MIC [1]: 0.78 µg/mL (≈ 2.24 µM)
Mean Survival Days [2]: 12.5 days

SMILES: COCc1ccc(C(=O)NCc2ccc(OCc3ccc(F)cc3)cc2)c(N)n1 [Example A-32, 2-Amino-N-(4-(4-fluoro-benzyloxy)-benzyl)-6-methoxymethyl-nicotinamide]
Mean Survival Days [3]: 11.8 days

SMILES: COCc1ccc(C(=O)NCc2ccc(OCc3ccccn3)cc2)c(N)n1 [Example A-31, 2-Amino-6-methoxymethyl-N-(4-(pyridin-2-ylmethoxy)-benzyl)-nicotinamide]
Mean Survival Days [3]: 11.2 days

SMILES: O=C(NCc1ccc(Oc2ccccc2)s1)c1cnc2[nH]ccc2c1 [Example R-1, 1H-Pyrrolo[2,3-b]pyridine-5-carboxylic acid (5-phenoxy-thiophen-2-ylmethyl)-amide]
MIC [4]: 3.13 µg/mL (≈ 8.96 µM)
MIC [1]: 0.39 µg/mL (≈ 1.12 µM)
Mean Survival Days [2]: 10.4 days

SMILES: Nc1ccc(C(=O)NCc2ccc(Oc3ccc(F)cc3)s2)c(N)n1 [Example A-53, 2,6-Diamino-N-(5-(4-fluoro-phenoxy)-thiophen-2-ylmethyl)-nicotinamide]
MIC [4]: 0.78 µg/mL (≈ 2.18 µM)
MIC [1]: 0.39 µg/mL (≈ 1.09 µM)
Mean Survival Days [2]: 13.4 days

SMILES: O=C(NCc1ccc(Oc2ccc(F)cc2)s1)c1ccc2ncccc2n1 [Example D-7, [1,5]Naphthylidine-2-carboxylic acid (5-(4-fluoro-phenoxy)-thiophen-2-ylmethyl)-amide]
Mean Survival Days [3]: 10.6 days

SMILES: O=C(NCc1ccn(Cc2cccc(F)c2)c1)c1ccc2ncccc2n1 [Example D-4, [1,5]Naphthylidine-2-carboxylic acid (1-(3-fluoro-benzyl)-1H-pyrrol-3-ylmethyl)-amide]
Mean Survival Days [3]: 10.8 days

SMILES: Nc1ncccc1C(=O)NCc1ccc(Cc2ccccc2)s1 [Example A-70, 2-Amino-N-(5-benzyl-thiophen-2-ylmethyl)-nicotinamide]
MIC [4]: 0.78 µg/mL (≈ 2.41 µM)
MIC [1]: 0.05 µg/mL (≈ 0.155 µM)
Mean Survival Days [2]: 12.6 days

SMILES: Nc1ncccc1C(=O)NCc1ccc(Oc2cccc(F)c2)s1 [Example A-68, 2-Amino-N-(5-(3-fluoro-phenoxy)-thiophen-2-ylmethyl)-nicotinamide]
MIC [4]: 0.78 µg/mL (≈ 2.27 µM)
MIC [1]: 0.05 µg/mL (≈ 0.146 µM)
Mean Survival Days [2]: 10.6 days

SMILES: O=C(NCc1ccc(Oc2cccc(F)c2)s1)c1ccc2ncccc2c1 [Example E-65, Quinoline-6-carboxylic acid (5-(3-fluorophenoxy)thiophen-2-ylmethyl) amide]
MIC [4]: 1.56 µg/mL (≈ 4.12 µM)
MIC [1]: 0.1 µg/mL (≈ 0.264 µM)
Mean Survival Days [2]: 11.6 days

MIC [4]: 6.25 µg/mL (≈ 14.5 µM)
MIC [1]: 0.78 µg/mL (≈ 1.81 µM)
SMILES: Nc1nc(NCc2ccccc2)ccc1C(=O)NCc1ccc(Oc2ccccc2)s1 [Example A-126, 2-Amino-6-benzylamino-N-(5-phenoxy-thiophen-2-ylmethyl)-nicotinamide]
